The values below come from ChEMBL document CHEMBL1201862, “PubChem BioAssay data set” (2004).

The structures appear in SMILES notation. Activity calls are given as the source filed them.

The term AC50 denotes the concentration at which the activity in the assay is half-maximal. What is called IC50 is the point on the concentration scale where inhibition reaches its midpoint. Usually CC50 stands for the concentration that lowers cell viability or growth by half.

Chain of Luciferin 4-monooxygenase (P08659 whole entry): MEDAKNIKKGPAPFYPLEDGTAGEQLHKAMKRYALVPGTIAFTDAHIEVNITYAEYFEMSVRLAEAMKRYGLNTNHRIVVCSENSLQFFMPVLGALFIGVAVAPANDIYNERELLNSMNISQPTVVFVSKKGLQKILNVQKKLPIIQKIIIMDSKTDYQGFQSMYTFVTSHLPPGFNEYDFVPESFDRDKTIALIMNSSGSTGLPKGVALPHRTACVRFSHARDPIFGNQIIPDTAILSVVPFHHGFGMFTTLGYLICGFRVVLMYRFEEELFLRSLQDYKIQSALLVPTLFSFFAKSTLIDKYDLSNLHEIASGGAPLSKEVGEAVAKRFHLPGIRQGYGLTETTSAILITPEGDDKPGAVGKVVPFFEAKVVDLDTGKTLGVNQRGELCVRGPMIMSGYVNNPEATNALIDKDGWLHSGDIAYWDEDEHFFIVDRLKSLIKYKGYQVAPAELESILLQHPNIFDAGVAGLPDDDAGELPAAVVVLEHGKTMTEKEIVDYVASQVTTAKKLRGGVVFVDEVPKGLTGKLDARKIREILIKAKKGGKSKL
Chain of Paired box protein Pax-8 (Q06710 whole entry): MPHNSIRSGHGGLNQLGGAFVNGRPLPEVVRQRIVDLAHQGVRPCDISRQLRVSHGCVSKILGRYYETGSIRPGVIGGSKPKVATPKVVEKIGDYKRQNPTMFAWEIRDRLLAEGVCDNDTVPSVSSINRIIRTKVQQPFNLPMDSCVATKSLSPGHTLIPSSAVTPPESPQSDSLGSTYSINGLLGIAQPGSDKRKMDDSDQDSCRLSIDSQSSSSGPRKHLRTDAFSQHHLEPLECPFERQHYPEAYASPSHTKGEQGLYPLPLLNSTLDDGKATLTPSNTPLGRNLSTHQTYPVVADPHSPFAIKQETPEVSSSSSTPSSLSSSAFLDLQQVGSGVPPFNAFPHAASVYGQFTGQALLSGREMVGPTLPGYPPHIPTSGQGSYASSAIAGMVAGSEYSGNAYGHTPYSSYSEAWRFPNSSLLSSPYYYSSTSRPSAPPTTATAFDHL

Tested on in the first experiment: not listed separately
Nature of the experiment: Luminescence Cell-Based Dose Confirmation HTS to Identify Inhibitors of Platelet Dense Granule Release. [Related pubchem assays: 1663 (Primary HTS), 1678 (Summary of Project)]. In kind it is functional.
Conditions: not given
As to `CN(C)c1ccc(N/C=C/C(=O)c2ccc(F)cc2)cc1`, the EC50 is 1.5 µM (active).
`CN(C)c1ccc(N/C=C/C(=O)c2ccccc2)cc1`: the EC50 is 0.93 µM (active).
For `Cc1cccc(CCNC(=O)c2cc(S(=O)(=O)N3CCCC3)cn2C)c1`, the EC50 is recorded as > 112 µM (not active).

The target in a further experiment is T1, RNA-binding protein pos-1 (Caenorhabditis elegans, UniProt G5EF15).
T1 sequence (G5EF15 whole entry): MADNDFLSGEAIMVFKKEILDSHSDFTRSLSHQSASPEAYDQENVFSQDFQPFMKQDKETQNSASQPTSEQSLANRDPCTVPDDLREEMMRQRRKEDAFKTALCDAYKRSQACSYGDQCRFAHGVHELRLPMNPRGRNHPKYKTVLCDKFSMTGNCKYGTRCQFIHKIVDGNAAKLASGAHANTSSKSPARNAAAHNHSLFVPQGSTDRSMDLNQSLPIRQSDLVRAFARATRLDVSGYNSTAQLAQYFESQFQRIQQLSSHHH
Nature of the experiment: inhibitors of POS-1/mex-3 RNA binding, dose response, biochemical, fluorescence polarization (AID 1964).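 Further: purified POS-1 fused to maltose binding protein made in E. coli; potency of compounds blocking POS-1 binding to fluorescent RNA.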
Conditions: not given
Regarding `Cc1c(N/C=C2\C(=O)NC(=O)N(Cc3ccccc3)C2=O)c(=O)n(-c2ccccc2)n1C`, the EC50 is recorded as > 300 µM (not active).
Same read-out and setting: the same measure for `NC(=O)c1c(NC(=O)c2c(F)cccc2F)sc2c1CCN(Cc1ccccc1)C2`: 57.1 µM (active); for `CC(=O)c1c(C(C)=O)c(C)n(-c2ccc(C(=O)O)cc2)c1C`: > 300 µM (not active).
Take `Cc1cc(C(F)(F)F)c2c(N)c(C(=O)Nc3cc(C)on3)sc2n1`: the EC50 is > 300 µM (inconclusive).
The same measure, in the same setting: the same measure for `COc1ccc(OC)c(/N=C/c2c(O)oc3ccccc3c2=O)c1`: > 300 µM (inconclusive).
On the same count and under the same terms, the same measure for `COc1ccc(C2CC(=O)C(/C=N/CCCO)=C(O)C2)cc1` (stereo unspecified): 34.8 µM (active).

For a further experiment, the target named is FAD-linked sulfhydryl oxidase ALR (Homo sapiens, UniProt P55789). Nature of the experiment: inhibitors of human ALR sulfhydryl oxidase, dose response, biochemical, H2O2 detection, luminescence, cherry-pick (AID 493248).
Chain of FAD-linked sulfhydryl oxidase ALR (P55789 whole entry): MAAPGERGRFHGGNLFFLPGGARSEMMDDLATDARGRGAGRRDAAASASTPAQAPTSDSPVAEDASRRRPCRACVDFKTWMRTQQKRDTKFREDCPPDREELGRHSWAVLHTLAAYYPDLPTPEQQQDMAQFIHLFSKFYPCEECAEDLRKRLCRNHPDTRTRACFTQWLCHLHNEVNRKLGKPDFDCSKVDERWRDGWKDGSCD
Conditions: not given
Regarding `COc1cc(-c2csc(C)n2)ccc1O`, the concentration at half-maximal activity (AC50) is 13.9 µM (active).

A further experiment concerns the target Heat shock protein HSP 90-alpha (Homo sapiens, UniProt P07900).
Assay: not given
Conditions: not given
Format: functional, organism-based.
On to `Oc1ccccc1-c1nc(NC2CCCC2)c2ccccc2n1`, for which the AC50 is 4.23 µM (active).
For `CC1CCN(C2CC(=O)N(c3ccc(Br)cc3Br)C2=O)CC1` (stereo unspecified), the concentration at half-maximal activity (AC50) is < 0.195 µM (active).
Same read-out and setting: the same measure for `O=C(CCN1C(=O)/C(=C/c2cccs2)SC1=S)NC1=NCCS1`: 5.03 µM (active).
`CN(O)C(=S)c1ccccc1`: the AC50 is 0.521 µM (active).

The next experiment deals with Large T antigen (Simian virus 40, UniProt P03070).
Chain of Large T antigen (P03070 whole entry): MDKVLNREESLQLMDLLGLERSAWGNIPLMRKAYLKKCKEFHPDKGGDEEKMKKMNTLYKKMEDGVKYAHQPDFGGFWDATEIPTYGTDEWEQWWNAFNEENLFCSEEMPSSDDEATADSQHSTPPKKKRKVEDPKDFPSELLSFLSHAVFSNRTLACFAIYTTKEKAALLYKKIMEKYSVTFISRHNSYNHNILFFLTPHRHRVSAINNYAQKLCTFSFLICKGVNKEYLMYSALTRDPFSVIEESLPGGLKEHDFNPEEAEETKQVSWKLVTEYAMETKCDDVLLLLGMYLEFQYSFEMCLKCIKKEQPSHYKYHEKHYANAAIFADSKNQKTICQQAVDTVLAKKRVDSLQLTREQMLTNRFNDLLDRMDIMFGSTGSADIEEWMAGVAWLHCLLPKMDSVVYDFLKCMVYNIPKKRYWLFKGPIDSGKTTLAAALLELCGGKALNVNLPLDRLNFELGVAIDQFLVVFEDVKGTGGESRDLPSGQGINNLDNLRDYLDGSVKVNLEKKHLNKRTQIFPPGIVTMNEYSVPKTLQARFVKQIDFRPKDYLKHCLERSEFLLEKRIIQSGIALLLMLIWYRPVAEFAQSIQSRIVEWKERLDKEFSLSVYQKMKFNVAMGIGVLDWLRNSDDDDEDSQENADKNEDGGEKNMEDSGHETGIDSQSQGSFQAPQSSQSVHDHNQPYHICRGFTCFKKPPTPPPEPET
Assay: not given
Conditions: not given
Format: functional, Betapolyomavirus macacae.
`CN(C)c1ccc(N/C=C/C(=O)c2ccccc2)cc1`: the IC50 was 5.19 µM (active).
On the same count and under the same terms, the same measure for `COc1cc(-c2csc(C)n2)ccc1O`: 4.9 µM (active); for `COc1cc(/C=C2\SC(NS(=O)(=O)c3ccc(C)cc3)=NC2=O)c([N+](=O)[O-])cc1OC`: 41.3 µM (active); for `CN(C)c1ccc(NS(=O)(=O)c2cc3c4c(c2)CC(=O)N4CCC3)cc1`: 69.8 µM (active).
The same measure, in the same setting: the same measure for `COc1ccc(NCC(O)Cn2cnc3c2c(=O)n(C)c(=O)n3C)cc1` (stereo unspecified): 17.7 µM (active); for `CC(=O)Oc1cc(O)c2c(=O)c(OC(C)=O)c(-c3ccc(OC(C)=O)c(OC(C)=O)c3)oc2c1`: 14.4 µM (active).

Tested on in the next experiment: not listed separately
Nature of the experiment: inhibitors of intracellular T. cruzi replication, confirmation, NIH3T3 host cells, beta-gal luminescence (AID 2044).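 Further: intracellular parasites grown in NIH/3T3 mouse fibroblasts as host cells; luminescent beta-galactosidase reporter signal from transgenic T. cruzi replicating inside host cells; inhibitors lower the luminescence signal.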 In kind it is functional, cell-based.
Conditions: not given
Regarding `CN(C)c1ccc(N/C=C/C(=O)c2ccc(F)cc2)cc1`, the EC50 was 2.32 µM (active).

A further experiment has as its target Luciferin 4-monooxygenase (Photinus pyralis, UniProt P08659). Nature of the experiment: firefly luciferase enzyme inhibitors, dose response, biochemical, luminescence (AID 1891).
Conditions: not given
With `CN(C)c1ccc(N/C=C/C(=O)c2ccc(F)cc2)cc1`, the EC50 was 816 nM (active).
The same measure, in the same setting: with `CN(C)c1ccc(N/C=C/C(=O)c2ccccc2)cc1` the figure was 654 nM (active); with `Cc1cccc(CCNC(=O)c2cc(S(=O)(=O)N3CCCC3)cn2C)c1`, > 112000 nM (not active).

In the next experiment the test system is Vero. Nature of the experiment: cells. As to conditions: Chlorocebus sabaeus. In kind it is functional.
With `COc1cccc(-c2ccc(NC(=O)C3CCCN(Cc4cnn(C(C)C)c4)C3)cc2)c1` (stereo unspecified), the cytotoxic concentration (CC50) is > 25 µM (active).
Same read-out and setting: with `Cc1ccc(-c2cc3nc(-c4ccccc4)cc(NCCCO)n3n2)cc1` the figure was > 25 µM (active).

The target of another experiment is T2, Corticotropin-releasing factor receptor 2/Corticotropin-releasing factor-binding protein (Homo sapiens, UniProt P24387+Q13324).
T2 sequence (Q13324 whole entry): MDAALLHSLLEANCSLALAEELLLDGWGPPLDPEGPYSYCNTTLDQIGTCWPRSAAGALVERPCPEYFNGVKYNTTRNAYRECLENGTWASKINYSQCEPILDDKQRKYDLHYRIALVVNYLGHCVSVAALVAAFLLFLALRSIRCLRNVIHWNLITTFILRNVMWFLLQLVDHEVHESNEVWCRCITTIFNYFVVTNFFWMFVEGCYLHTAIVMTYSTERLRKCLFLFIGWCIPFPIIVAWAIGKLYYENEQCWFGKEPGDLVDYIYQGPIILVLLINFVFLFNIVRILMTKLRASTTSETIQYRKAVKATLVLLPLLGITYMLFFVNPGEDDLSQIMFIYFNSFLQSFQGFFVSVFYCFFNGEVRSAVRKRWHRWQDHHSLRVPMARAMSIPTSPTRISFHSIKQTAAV
T2 sequence (P24387 whole entry): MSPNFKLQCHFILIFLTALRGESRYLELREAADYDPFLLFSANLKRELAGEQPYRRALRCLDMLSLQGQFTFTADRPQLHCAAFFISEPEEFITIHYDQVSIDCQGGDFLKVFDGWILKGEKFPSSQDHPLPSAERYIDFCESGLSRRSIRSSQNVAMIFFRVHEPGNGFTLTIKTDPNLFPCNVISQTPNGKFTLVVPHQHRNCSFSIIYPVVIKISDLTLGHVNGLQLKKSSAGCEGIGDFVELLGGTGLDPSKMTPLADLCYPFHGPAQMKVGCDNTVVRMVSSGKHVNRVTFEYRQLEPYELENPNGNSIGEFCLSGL
Nature of the experiment: activators of CRF receptor 2 with binding protein – uHTS hits, confirmation (AID 602473). In kind it is functional. Conditions: read-out: EC50_Mean.
`CCN(C(=O)CN1C(=O)COc2ccc(S(=O)(=O)N3CCCCCC3)cc21)c1cccc(C)c1`: the EC50 is 6.41 µM (active).
Same read-out and setting: the same measure for `O=C(NCCOC(=O)C1COc2ccccc2O1)c1cccnc1` (stereo unspecified): > 53 µM (inactive).

Tested on in the next experiment: not listed separately
Nature of the experiment: cytotoxicity toward NIH3T3 fibroblasts, dose response, counter-screen, cell-based, ATP luminescence, mouse fibroblasts (AID 2010).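 Further: cells exposed to compound for about 90 hours before reading.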 Format: functional.
Conditions: not given
For orientation: The purpose of a counterscreen is to sort out artefacts and off-target activity.
For the compound `CN(C)c1ccc(N/C=C/C(=O)c2ccc(F)cc2)cc1`, the EC50 is > 30 µM (not active).

The next experiment concerns the target T3, Carboxy-terminal domain RNA polymerase II polypeptide A small phosphatase 1 (Homo sapiens, UniProt Q9GZU7).
T3 sequence (Q9GZU7 whole entry): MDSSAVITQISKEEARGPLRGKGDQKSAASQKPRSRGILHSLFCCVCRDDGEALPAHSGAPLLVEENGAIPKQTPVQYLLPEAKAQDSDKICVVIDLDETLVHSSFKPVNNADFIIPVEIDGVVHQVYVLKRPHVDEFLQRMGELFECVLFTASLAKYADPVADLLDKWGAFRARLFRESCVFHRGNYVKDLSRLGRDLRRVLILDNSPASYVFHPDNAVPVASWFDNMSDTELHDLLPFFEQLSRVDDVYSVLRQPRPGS
Nature of the experiment: inhibitors of CTDSP1, concentration-response testing, biochemical assay, absorbance-based, actives from ultra-high-throughput screening (AID 540297).
Conditions: not given
Format: functional.
`CC(C)(O)CCCC(C)(O)c1ccc(C(=O)O)cc1O` (stereo unspecified): the concentration for half-maximal inhibition (IC50) is 9.75 µM (active).
The same measure, in the same setting: the same measure for `CCCc1ccc(C(=O)NNC(=O)c2ccc(Cl)cc2)cc1`: 9.67 µM (active); for `CC(=O)Nc1ccc(S(=O)(=O)N(C)CC(=O)OCC(=O)N2CCN(C(=O)c3ccco3)CC2)cc1`: 9.38 µM (active); for `O=C(COc1ccc2oc(-c3ccccc3)cc(=O)c2c1)NCc1ccco1`: 9.63 µM (active).
The same measure, in the same setting: the same measure for `COc1ccccc1NC(=O)c1nn(-c2ccc(Cl)cc2)ccc1=O`: 9.88 µM (active); for `C[N+]1(C2CCC3CCCC2C3O)CCCC1` (stereo unspecified): 6.98 µM (active).
Same read-out and setting: the same measure for `CCn1c(=O)c(NC(=O)c2ccccc2)c2n(c1=S)CCCCC2`: 8.47 µM (active).

Another experiment concerns the target Paired box protein Pax-8 (Homo sapiens, UniProt Q06710). Nature of the experiment: inhibitors of PAX8-driven TPO luciferase reporter, dose response, RMG-I cells, cherry-pick (AID 687027).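 Further: luciferase reporter driven by Pax8 target thyroperoxidase promoter measured by SteadyGlo luminescence.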
Conditions: not given
Format: functional, cell-based. Background: Reporter assays use an easily measured gene product as a stand-in for the process of interest.
`C#CCN(C[C@H]1[C@H](OC(=O)Nc2c(C)noc2C)[C@H](OC(=O)Nc2c(C)noc2C)C[C@@H](C(=O)OC)[C@H]1C(=O)OC)S(=O)(=O)c1ccc(C)cc1`: the AC50 is 31.9 µM (active).
Same read-out and setting: the same measure for `C[C@H]1CCCCO[C@@H](CN(C)C)[C@@H](C)CN([C@@H](C)CO)C(=O)c2cc(NC(=O)Nc3ccc(C(F)(F)F)cc3)ccc2O1`: 22.1 µM (active); for `C[C@@H]1CCCCO[C@H](CN(C)C(=O)Nc2ccc(F)cc2)[C@@H](C)CN([C@@H](C)CO)C(=O)c2cc(NC(=O)Nc3ccc(C(F)(F)F)cc3)ccc2O1`: 2.58 µM (active).
With `C[C@@H]1CCCCO[C@H](CN(C)Cc2ccc(C(F)(F)F)cc2)[C@H](C)CN([C@H](C)CO)C(=O)c2cc(NS(=O)(=O)c3ccc(F)cc3)ccc2O1`, the concentration at half-maximal activity (AC50) is 6.71 µM (active).

The target of the next experiment is T4, Zinc finger protein mex-5 (Caenorhabditis elegans, UniProt Q9XUB2).
T4 sequence (Q9XUB2 whole entry): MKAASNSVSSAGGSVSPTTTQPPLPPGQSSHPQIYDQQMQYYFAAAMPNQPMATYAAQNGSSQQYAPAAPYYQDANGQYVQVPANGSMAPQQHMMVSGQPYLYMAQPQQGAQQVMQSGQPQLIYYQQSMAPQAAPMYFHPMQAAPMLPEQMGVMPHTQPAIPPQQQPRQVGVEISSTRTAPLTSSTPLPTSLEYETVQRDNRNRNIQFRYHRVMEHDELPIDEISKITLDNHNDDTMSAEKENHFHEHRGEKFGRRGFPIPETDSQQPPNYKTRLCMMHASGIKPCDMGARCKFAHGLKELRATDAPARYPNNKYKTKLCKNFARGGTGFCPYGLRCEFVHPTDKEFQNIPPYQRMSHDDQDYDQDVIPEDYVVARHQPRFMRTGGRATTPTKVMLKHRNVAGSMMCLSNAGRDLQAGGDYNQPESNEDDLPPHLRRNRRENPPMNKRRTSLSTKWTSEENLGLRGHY
Nature of the experiment: MEX-5/TCR-2 RNA interaction inhibitors, dose response, biochemical, C. elegans, fluorescence polarization (AID 1960).
Conditions: not given
As to `Cc1c(N/C=C2\C(=O)NC(=O)N(Cc3ccccc3)C2=O)c(=O)n(-c2ccccc2)n1C`, the EC50 was > 300 µM (not active).
Consider `NC(=O)c1c(NC(=O)c2c(F)cccc2F)sc2c1CCN(Cc1ccccc1)C2`, for which the EC50 was > 300 µM (not active).
Still for that read-out and setting: with `CC(=O)c1c(C(C)=O)c(C)n(-c2ccc(C(=O)O)cc2)c1C` the figure was > 300 µM (not active); with `Cc1cc(C(F)(F)F)c2c(N)c(C(=O)Nc3cc(C)on3)sc2n1`, 39.2 µM (active).
The same measure, in the same setting: the same measure for `COc1ccc(OC)c(/N=C/c2c(O)oc3ccccc3c2=O)c1`: > 300 µM (inconclusive).
On the same count and under the same terms, with `COc1ccc(C2CC(=O)C(/C=N/CCCO)=C(O)C2)cc1` (stereo unspecified) the figure was 37.9 µM (active).
